Molecules are shown by their SMILES.

Tested on in the first series: not listed separately
The experiment in a line: Cytotoxicity against mouse J774A1 cells assessed as cell viability at 2.5 to 20 uM after 20 hrs by MTT assay. The following applies: j774.a1, 20 h. Type of series: cell-based.
`COC(=O)/C=C\[C@]1(C)[C@H]2CC[C@@]3(C)[C@H](C4=CC(O)OC4=O)OC(=O)[C@H]4O[C@]43[C@]2(C)[C@]2(O)OC(C)(C)C(=O)[C@@]21O` (some centres not stated) [HARPERFOLIDE]: the Activity result is given as “Non-toxic”.

For the next series, the system named is J774.A1. The experiment in a line: Antiinflammatory activity in mouse J774A1 cells assessed as reduction of LPS-induced iNOS expression after 6 to 12 hrs by Western blot analysis.
Conditions: not given
The class given is functional, cell-based.
With `COC(=O)/C=C\[C@]1(C)[C@H]2CC[C@@]3(C)[C@H](C4=CC(O)OC4=O)OC(=O)[C@H]4O[C@]43[C@]2(C)[C@]2(O)OC(C)(C)C(=O)[C@@]21O` (some centres not stated) [HARPERFOLIDE], the Activity entry is “Dose-dependent effect”.

Tested on in another series: not listed separately
The experiment in a line: Antiinflammatory activity in mouse J774A1 cells assessed as reduction of LPS-induced nitric oxide production treated 2 hrs before LPS addition measured after 20 hrs by using Griess reagent. The following applies: J774.A1. The class given is functional, cell-based. (In general: Nitrite, measured by Griess reagent, commonly stands in for NO production.)
As to `COc1cc2oc(C)cc(=O)c2c(O)c1CC=C(C)C`, the IC50 – broadly, the concentration at which inhibition is half-maximal – came out at 56.4 µM.

Take `COc1cc2c(c3oc(C)cc(=O)c13)C=CC(C)(C)O2`: the IC50 was 66.4 µM. Same read-out and setting: the same measure for `COC(=O)c1cc(=O)c2c(O)cc3c(c2o1)C=CC(C)(C)O3`: 55 µM; for `CC(=O)c1c(O)c(CC=C(C)C)c(O)c2c1O[C@](C)(CCC=C(C)C)[C@H](OO)C2`: 31 µM. Same read-out and setting: the same measure for `C[C@H]1c2ccoc2C[C@H]2[C@H]1CC[C@@H]1[C@]2(C)CCC[C@]1(C)C(=O)O` [(+)-VOUACAPENIC ACID]: 132 µM.

`COc1cc(O)c2c(=O)cc(C)oc2c1CCC(C)(C)O` [HARPERAMONE]: the IC50 came out at 49.6 µM. On the same count and under the same terms, the result for `COC(=O)/C=C\[C@]1(C)[C@H]2CC[C@@]3(C)[C@H](C4=CC(O)OC4=O)OC(=O)[C@H]4O[C@]43[C@]2(C)[C@]2(O)OC(C)(C)C(=O)[C@@]21O` (some centres not stated) [HARPERFOLIDE] reads 6.51 µM; that for `COC(=O)/C=C\[C@]1(C)[C@H]2CC[C@@]3(C)[C@H](c4ccoc4)OC(=O)[C@H]4O[C@]43[C@]2(C)[C@]2(O)OC(C)(C)C(=O)[C@@]21O` [HARRISONIN], 135 µM; that for `COc1ccc2c(c1)c(CC(=O)O)c(C)n2C(=O)c1ccc(Cl)cc1` [INDOMETHACIN], 28.4 µM. On the same count and under the same terms, the same measure for `CC1(C)OC(=O)C=C[C@]2(C)[C@H]3CC[C@@]4(C)[C@H](c5ccoc5)OC(=O)[C@H]5O[C@]54[C@]3(C)C(=O)C[C@@H]12` [OBACUNONE]: 83.6 µM.
